Measurements as given in patent publication US20260262643A1, “HERBICIDAL BENZOXAZINES” (FMC CORPORATION, priority 2022, published 2026).

Columns and labels:
[1] = tested on: ducksalad; test: Test B flooded paddy test; type: in vivo, Heteranthera limosa; settings: 250 g ai/ha, Flood, 13 days, 0 to 100 scale (0 no effect, 100 complete control)
Outline: (§1)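 Plants at the 2-leaf stage were flooded to 3 cm above the soil, and test compounds were applied directly into the paddy water, with that depth held throughout. After 13 days in a greenhouse, injury was rated visually against untreated controls on a 0–100 scale (100 = complete control).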

[2] = tested on: oat, wild; test: Test A preemergence; type: in vivo, Avena fatua
Outline: (§2)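 Loam/sand soil; pre-em directed soil spray at planting, post-em spray at 1–2 leaf (2–10 cm). Compound in non-phytotoxic solvent + surfactant. Greenhouse 10 d; visual injury vs untreated, 0 = no effect, 100 = complete control.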

[3] = tested on: ragweed; test: Test A preemergence; type: in vivo, Ambrosia artemisiifolia
Outline: as §2

[4] = tested on: blackgrass; test: Test A postemergence; type: in vivo, Alopecurus myosuroides; settings: for Blackgrass plant response rating: 0 no effect, 100 complete control
Outline: as §2

[5] = tested on: pigweed, palmer; test: Test A preemergence; type: in vivo, Amaranthus palmeri
Outline: as §2

[6] = tested on: goosegrass; test: Test A postemergence; type: in vivo, Eleusine indica; settings: for Goosegrass plant response rating: 0 no effect, 100 complete control
Outline: as §2

[7] = tested on: horseweed; test: Test A postemergence; type: in vivo, Erigeron canadensis; settings: for Horseweed plant response rating: 0 no effect, 100 complete control
Outline: as §2

[8] = tested on: rice; test: Test B flooded paddy test; type: in vivo, Oryza sativa; settings: 250 g ai/ha, Flood, 13 days, 0 to 100 scale (0 no effect, 100 complete control)
Outline: as §1

[9] = tested on: sedge, umbrella; test: Test B flooded paddy test; type: in vivo, Cyperus difformis; settings: 250 g ai/ha, Flood, 13 days, 0 to 100 scale (0 no effect, 100 complete control)
Outline: as §1

[10] = tested on: ryegrass, Italian; test: Test A postemergence; type: in vivo, Lolium multiflorum; settings: for Ryegrass, Italian plant response rating: 125 g ai/ha, 0 no effect, 100 complete control; for Plant response rating, Ryegrass, Italian: 500 g ai/ha
Outline: as §2

[11] = tested on: oat, wild; test: Test A postemergence; type: in vivo, Avena fatua; settings: for Oat, Wild plant response rating: 125 g ai/ha, 0 no effect, 100 complete control; for Plant response rating, Oat, Wild: 500 g ai/ha
Outline: as §2

[12] = tested on: soybean; test: Test A postemergence; type: in vivo, Glycine max; settings: for Soybean plant response rating: 125 g ai/ha, 0 no effect, 100 complete control; for Plant response rating, Soybean: 500 g ai/ha
Outline: as §2

[13] = tested on: corn; test: Test A preemergence; type: in vivo, Zea mays
Outline: as §2

[14] = tested on: kochia; test: Test A postemergence; type: in vivo, Bassia scoparia; settings: for Kochia plant response rating: 0 no effect, 100 complete control
Outline: as §2

[15] = tested on: corn; test: Test A postemergence; type: in vivo, Zea mays; settings: for Corn plant response rating: 0 no effect, 100 complete control
Outline: as §2

[16] = tested on: blackgrass; test: Test A preemergence; type: in vivo, Alopecurus myosuroides
Outline: as §2

[17] = tested on: ragweed; test: Test A postemergence; type: in vivo, Ambrosia artemisiifolia; settings: for Ragweed plant response rating: 125 g ai/ha, 0 no effect, 100 complete control; for Plant response rating, Ragweed: 500 g ai/ha
Outline: as §2

[18] = tested on: soybean; test: Test A preemergence; type: in vivo, Glycine max
Outline: as §2

[19] = tested on: galium; test: Test A postemergence; type: in vivo, Galium aparine; settings: for Galium plant response rating: 0 no effect, 100 complete control
Outline: as §2

[20] = tested on: foxtail, giant; test: Test A preemergence; type: in vivo, Setaria faberi
Outline: as §2

[21] = tested on: wheat; test: Test A postemergence; type: in vivo, Triticum aestivum; settings: for Wheat plant response rating: 125 g ai/ha, 0 no effect, 100 complete control; for Plant response rating, Wheat: 500 g ai/ha
Outline: as §2

[22] = tested on: foxtail, giant; test: Test A postemergence; type: in vivo, Setaria faberi; settings: for Foxtail, Giant plant response rating: 0 no effect, 100 complete control
Outline: as §2

[23] = tested on: ryegrass, Italian; test: Test A preemergence; type: in vivo, Lolium multiflorum
Outline: as §2

[24] = tested on: pigweed, palmer; test: Test A postemergence; type: in vivo, Amaranthus palmeri; settings: for Pigweed, Palmer plant response rating: 125 g ai/ha, 0 no effect, 100 complete control; for Plant response rating, Pigweed, Palmer: 500 g ai/ha
Outline: as §2

[25] = tested on: goosegrass; test: Test A preemergence; type: in vivo, Eleusine indica
Outline: as §2

[26] = tested on: barnyardgrass; test: Test B flooded paddy test; type: in vivo, Echinochloa crus-galli; settings: 250 g ai/ha, Flood, 13 days, 0 to 100 scale (0 no effect, 100 complete control)
Outline: as §1

[27] = tested on: wheat; test: Test A preemergence; type: in vivo, Triticum aestivum
Outline: as §2

[28] = tested on: kochia; test: Test A preemergence; type: in vivo, Bassia scoparia
Outline: as §2

[29] = 125 g ai/ha, visual injury after 10 days, 0 to 100 scale, 0 is no effect, 100 is complete control
[30] = 500 g ai/ha, 0 to 100 scale (0 no effect, 100 complete control), 10 days
[31] = 125 g ai/ha, postemergence, 10 days, 0 to 100 scale
[32] = 500 g ai/ha, postemergence, 10 days, visual injury, 0 to 100 scale (0 no effect, 100 complete control)
[33] = postemergence, 10 days, 0 to 100 scale
[34] = postemergence, 10 days, visual injury, 0 to 100 scale (0 no effect, 100 complete control)
[35] = 125 g ai/ha, postemergence, 10 days, visual injury, 0 to 100 scale (0 no effect, 100 complete control)
[36] = 500 g ai/ha, Postemergence, 0 to 100 scale

C[C@H]1CN(C(=O)c2cccc(-n3cnc(CC4CCCCC4)n3)c2)c2cccc(Cl)c2O1 [Compound 90]
20: Soybean plant response rating [12, 33] | Plant response rating, Soybean [12, 34] | Plant response rating, Kochia [14, 32]
0: Plant response rating, Ducksalad [1] | Plant response rating, Oat, Wild [2, 29] | Plant response rating, Oat, Wild [2, 30] | Plant response rating, Ragweed [3, 29] | Plant response rating, Ragweed [3, 30] | Blackgrass plant response rating [4, 31] | Plant response rating, Blackgrass [4, 32] | Plant response rating, Pigweed, Palmer [5, 29] | Plant response rating, Pigweed, Palmer [5, 30] | Goosegrass plant response rating [6, 31] | Plant response rating, Goosegrass [6, 32] | Horseweed plant response rating [7, 31] | Plant response rating, Horseweed [7, 32] | Plant response rating, Rice [8] | Plant response rating, Sedge, Umbrella [9] | Ryegrass, Italian plant response rating [10, 33] | Plant response rating, Ryegrass, Italian [10, 34] | Oat, Wild plant response rating [11, 33] | Plant response rating, Oat, Wild [11, 34] | Plant response rating, Corn [13, 29] | Plant response rating, Corn [13, 30] | Kochia plant response rating [14, 31] | Corn plant response rating [15, 31] | Plant response rating, Corn [15, 32] | Plant response rating, Blackgrass [16, 29] | Plant response rating, Blackgrass [16, 30] | Ragweed plant response rating [17, 33] | Plant response rating, Ragweed [17, 34] | Plant response rating, Soybean [18, 29] | Plant response rating, Soybean [18, 30] | Galium plant response rating [19, 31] | Plant response rating, Galium [19, 32] | Plant response rating, Foxtail, Giant [20, 29] | Plant response rating, Foxtail, Giant [20, 30] | Foxtail, Giant plant response rating [22, 31] | Plant response rating, Foxtail, Giant [22, 32] | Plant response rating, Ryegrass, Italian [23, 29] | Plant response rating, Ryegrass, Italian [23, 30] | Pigweed, Palmer plant response rating [24, 33] | Plant response rating, Goosegrass [25, 29] | Plant response rating, Goosegrass [25, 30] | Plant response rating, Barnyardgrass [26] | Plant response rating, Wheat [27, 29] | Plant response rating, Wheat [27, 30]
50: Plant response rating, Pigweed, Palmer [24, 34]
10: Wheat plant response rating [21, 33] | Plant response rating, Wheat [21, 34]

Cc1cccc2c1O[C@@H](C)CN2C(=O)c1cccc(-n2cnc(C(C)(C)C)n2)c1 [Compound 65]
50: Plant response rating, Corn [13, 30] | Plant response rating, Foxtail, Giant [22, 36]
30: Plant response rating, Blackgrass [4, 35] | Plant response rating, Soybean [18, 29]
0: Plant response rating, Ragweed [3, 29] | Plant response rating, Horseweed [7, 35] | Plant response rating, Rice [8] | Plant response rating, Barnyardgrass [26]
10: Plant response rating, Goosegrass [6, 35] | Plant response rating, Corn [15, 35] | Plant response rating, Foxtail, Giant [22, 35]
45: Plant response rating, Ducksalad [1]
40: Plant response rating, Ragweed [3, 30] | Plant response rating, Goosegrass [6, 36] | Plant response rating, Corn [13, 29] | Plant response rating, Wheat [27, 29]
80: Plant response rating, Oat, Wild [2, 30] | Plant response rating, Blackgrass [4, 36] | Plant response rating, Blackgrass [16, 29] | Plant response rating, Kochia [28, 29] | Plant response rating, Ragweed ([17]; Postemergence, 0 to 100 scale)
100: Plant response rating, Pigweed, Palmer [5, 30] | Plant response rating, Ryegrass, Italian ([10]; Postemergence, 0 to 100 scale) | Plant response rating, Soybean ([12]; Postemergence, 0 to 100 scale) | Plant response rating, Kochia [28, 30] | Plant response rating, Galium [19, 35] | Plant response rating, Galium [19, 36] | Plant response rating, Foxtail, Giant [20, 29] | Plant response rating, Foxtail, Giant [20, 30] | Plant response rating, Ryegrass, Italian [23, 29] | Plant response rating, Ryegrass, Italian [23, 30] | Plant response rating, Goosegrass [25, 29] | Plant response rating, Goosegrass [25, 30]
70: Plant response rating, Oat, Wild [2, 29] | Plant response rating, Corn [15, 36] | Plant response rating, Pigweed, Palmer ([24]; Postemergence, 0 to 100 scale) | Plant response rating, Wheat [27, 30]
20: Plant response rating, Horseweed [7, 36] | Plant response rating, Oat, Wild ([11]; Postemergence, 0 to 100 scale) | Plant response rating, Wheat ([21]; Postemergence, 0 to 100 scale)
60: Plant response rating, Kochia [14, 35]
90: Plant response rating, Pigweed, Palmer [5, 29] | Plant response rating, Kochia [14, 36] | Plant response rating, Blackgrass [16, 30] | Plant response rating, Soybean [18, 30]
95: Plant response rating, Sedge, Umbrella [9]

CCc1ccc(-n2cnc(C(C)(C)C)n2)cc1C(=O)N1C[C@H](C)Oc2c(Cl)cccc21 [Compound 102]
65: Plant response rating, Ducksalad [1]
40: Plant response rating, Oat, Wild [2, 29] | Plant response rating, Ragweed [17, 34]
30: Plant response rating, Blackgrass [16, 29] | Plant response rating, Wheat [21, 34]
20: Plant response rating, Corn [13, 30] | Corn plant response rating [15, 31] | Ragweed plant response rating [17, 33]
50: Ryegrass, Italian plant response rating [10, 33] | Plant response rating, Ryegrass, Italian [10, 34] | Plant response rating, Blackgrass [16, 30] | Plant response rating, Soybean [18, 29] | Galium plant response rating [19, 31]
80: Plant response rating, Oat, Wild [2, 30] | Goosegrass plant response rating [6, 31] | Plant response rating, Goosegrass [6, 32] | Plant response rating, Corn [15, 32] | Plant response rating, Kochia [28, 29] | Foxtail, Giant plant response rating [22, 31] | Plant response rating, Ryegrass, Italian [23, 29]
95: Plant response rating, Sedge, Umbrella [9]
90: Kochia plant response rating [14, 31] | Plant response rating, Kochia [14, 32] | Plant response rating, Foxtail, Giant [20, 29] | Plant response rating, Foxtail, Giant [22, 32] | Pigweed, Palmer plant response rating [24, 33]
0: Plant response rating, Ragweed [3, 29] | Plant response rating, Ragweed [3, 30] | Blackgrass plant response rating [4, 31] | Horseweed plant response rating [7, 31] | Plant response rating, Horseweed [7, 32] | Plant response rating, Wheat [27, 29] | Plant response rating, Wheat [27, 30]
100: Plant response rating, Pigweed, Palmer [5, 29] | Plant response rating, Pigweed, Palmer [5, 30] | Soybean plant response rating [12, 33] | Plant response rating, Soybean [12, 34] | Plant response rating, Kochia [28, 30] | Plant response rating, Soybean [18, 30] | Plant response rating, Galium [19, 32] | Plant response rating, Foxtail, Giant [20, 30] | Plant response rating, Ryegrass, Italian [23, 30] | Plant response rating, Pigweed, Palmer [24, 34] | Plant response rating, Goosegrass [25, 29] | Plant response rating, Goosegrass [25, 30]
10: Plant response rating, Rice [8] | Oat, Wild plant response rating [11, 33] | Plant response rating, Corn [13, 29] | Wheat plant response rating [21, 33] | Plant response rating, Barnyardgrass [26]
60: Plant response rating, Blackgrass [4, 32] | Plant response rating, Oat, Wild [11, 34]
